Experimental data from patent US20220356174A1, “PYRIDIN-2-ONE COMPOUNDS USEFUL AS SMARCA2 ANTAGONISTS” (Epizyme, Inc., priority 2018, published 2022).
Like-named read-outs stand apart in the source and are kept apart here.

Key:
FL-SMARCA4 = FL-SMARCA4 (Homo sapiens, UniProt P51532); assay: SMARCA4 ATPase activity assay (ADP-Glo, chicken mononucleosome substrate)
[1] = target: T1, FL-SMARCA2 (full-length human SMARCA2 isoform 1) (Homo sapiens, UniProt P51531); assay: SMARCA2 ATPase activity assay (ADP-Glo, chicken mononucleosome substrate); format: biochemical; details: ATP 250 uM
T1 construct: FLAG tag (YKDDDDK) (C); made in house; host or cells: Sf21 insect cells (baculovirus, pFastBacI)

[2] = FL-SMARCA4 IC>50, Table 3c.2, ATPase assay, enzyme 5 nM, ATP 250 uM, chicken mononucleosome 10 nM, 30 min preincubation
[3] = Table 3c.1, ATPase assay, enzyme 5 nM, chicken mononucleosome 10 nM, 30 min preincubation
[4] = FL-SMARCA4 IC50, Table 3.2, ATPase assay, enzyme 5 nM, ATP 250 uM, chicken mononucleosome 10 nM, 30 min preincubation
[5] = Table 3.1, ATPase assay, enzyme 5 nM, chicken mononucleosome 10 nM, 30 min preincubation
[6] = FL-SMARCA4 IC50, Table 3b.2, SMARCA4 5 nM, ATP 250 uM, mononucleosome 10 nM
[7] = Table 3b.1, SMARCA2 5 nM, mononucleosome 10 nM
[8] = Table 3d.1, ATPase assay, enzyme 5 nM, chicken mononucleosome 10 nM, 30 min preincubation, read-out: FL-SMARCA2 IC>50
[9] = FL-SMARCA4 IC50, Table 3a.2, SMARCA4 5 nM, ATP 250 uM, mononucleosome 10 nM
[10] = Table 3a.1, SMARCA2 5 nM, mononucleosome 10 nM

Sequence of FL-SMARCA4 (P51532 whole entry, canonical isoform): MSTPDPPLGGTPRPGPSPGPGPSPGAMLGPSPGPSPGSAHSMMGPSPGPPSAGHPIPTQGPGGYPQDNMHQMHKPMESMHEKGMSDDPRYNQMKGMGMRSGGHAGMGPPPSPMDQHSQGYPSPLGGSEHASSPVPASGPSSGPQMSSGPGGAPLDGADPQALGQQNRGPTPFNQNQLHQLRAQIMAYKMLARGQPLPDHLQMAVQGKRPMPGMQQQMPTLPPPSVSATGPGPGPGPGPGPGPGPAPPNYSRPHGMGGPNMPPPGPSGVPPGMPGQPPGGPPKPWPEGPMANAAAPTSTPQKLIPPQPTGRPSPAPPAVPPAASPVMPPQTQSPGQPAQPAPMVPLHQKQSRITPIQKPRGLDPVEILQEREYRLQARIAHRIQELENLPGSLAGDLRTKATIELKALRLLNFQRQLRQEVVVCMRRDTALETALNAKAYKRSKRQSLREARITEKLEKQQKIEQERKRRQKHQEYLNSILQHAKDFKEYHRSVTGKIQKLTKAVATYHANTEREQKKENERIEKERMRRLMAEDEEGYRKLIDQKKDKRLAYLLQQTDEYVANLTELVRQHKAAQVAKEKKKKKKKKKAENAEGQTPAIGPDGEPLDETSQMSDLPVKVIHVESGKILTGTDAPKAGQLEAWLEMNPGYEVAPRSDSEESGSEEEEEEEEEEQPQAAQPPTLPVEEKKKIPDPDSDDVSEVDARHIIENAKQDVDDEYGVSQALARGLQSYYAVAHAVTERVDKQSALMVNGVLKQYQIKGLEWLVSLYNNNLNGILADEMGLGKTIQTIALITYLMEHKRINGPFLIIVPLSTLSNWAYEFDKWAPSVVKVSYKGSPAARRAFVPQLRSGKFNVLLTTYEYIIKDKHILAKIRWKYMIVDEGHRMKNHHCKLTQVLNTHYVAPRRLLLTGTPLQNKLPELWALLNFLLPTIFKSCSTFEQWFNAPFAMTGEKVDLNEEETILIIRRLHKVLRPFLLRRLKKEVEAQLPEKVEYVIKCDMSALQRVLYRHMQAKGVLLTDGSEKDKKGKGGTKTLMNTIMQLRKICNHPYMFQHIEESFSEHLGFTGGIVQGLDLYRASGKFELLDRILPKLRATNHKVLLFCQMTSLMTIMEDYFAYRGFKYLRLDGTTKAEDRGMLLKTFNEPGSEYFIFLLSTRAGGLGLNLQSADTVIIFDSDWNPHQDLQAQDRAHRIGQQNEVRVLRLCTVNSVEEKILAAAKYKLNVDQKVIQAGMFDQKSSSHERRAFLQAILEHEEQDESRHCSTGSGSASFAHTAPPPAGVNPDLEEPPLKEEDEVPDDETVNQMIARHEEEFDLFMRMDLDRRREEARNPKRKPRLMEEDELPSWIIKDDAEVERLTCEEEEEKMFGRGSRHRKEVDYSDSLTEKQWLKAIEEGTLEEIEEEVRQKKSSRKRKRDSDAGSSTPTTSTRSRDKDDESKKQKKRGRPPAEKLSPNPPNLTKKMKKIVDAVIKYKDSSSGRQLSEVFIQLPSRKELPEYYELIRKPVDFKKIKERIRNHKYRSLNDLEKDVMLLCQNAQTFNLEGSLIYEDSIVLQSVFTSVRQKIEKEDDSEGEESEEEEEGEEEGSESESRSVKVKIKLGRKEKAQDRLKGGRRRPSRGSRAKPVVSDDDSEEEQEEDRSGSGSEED
T1 sequence (P51531 with tags, fused parts or gaps): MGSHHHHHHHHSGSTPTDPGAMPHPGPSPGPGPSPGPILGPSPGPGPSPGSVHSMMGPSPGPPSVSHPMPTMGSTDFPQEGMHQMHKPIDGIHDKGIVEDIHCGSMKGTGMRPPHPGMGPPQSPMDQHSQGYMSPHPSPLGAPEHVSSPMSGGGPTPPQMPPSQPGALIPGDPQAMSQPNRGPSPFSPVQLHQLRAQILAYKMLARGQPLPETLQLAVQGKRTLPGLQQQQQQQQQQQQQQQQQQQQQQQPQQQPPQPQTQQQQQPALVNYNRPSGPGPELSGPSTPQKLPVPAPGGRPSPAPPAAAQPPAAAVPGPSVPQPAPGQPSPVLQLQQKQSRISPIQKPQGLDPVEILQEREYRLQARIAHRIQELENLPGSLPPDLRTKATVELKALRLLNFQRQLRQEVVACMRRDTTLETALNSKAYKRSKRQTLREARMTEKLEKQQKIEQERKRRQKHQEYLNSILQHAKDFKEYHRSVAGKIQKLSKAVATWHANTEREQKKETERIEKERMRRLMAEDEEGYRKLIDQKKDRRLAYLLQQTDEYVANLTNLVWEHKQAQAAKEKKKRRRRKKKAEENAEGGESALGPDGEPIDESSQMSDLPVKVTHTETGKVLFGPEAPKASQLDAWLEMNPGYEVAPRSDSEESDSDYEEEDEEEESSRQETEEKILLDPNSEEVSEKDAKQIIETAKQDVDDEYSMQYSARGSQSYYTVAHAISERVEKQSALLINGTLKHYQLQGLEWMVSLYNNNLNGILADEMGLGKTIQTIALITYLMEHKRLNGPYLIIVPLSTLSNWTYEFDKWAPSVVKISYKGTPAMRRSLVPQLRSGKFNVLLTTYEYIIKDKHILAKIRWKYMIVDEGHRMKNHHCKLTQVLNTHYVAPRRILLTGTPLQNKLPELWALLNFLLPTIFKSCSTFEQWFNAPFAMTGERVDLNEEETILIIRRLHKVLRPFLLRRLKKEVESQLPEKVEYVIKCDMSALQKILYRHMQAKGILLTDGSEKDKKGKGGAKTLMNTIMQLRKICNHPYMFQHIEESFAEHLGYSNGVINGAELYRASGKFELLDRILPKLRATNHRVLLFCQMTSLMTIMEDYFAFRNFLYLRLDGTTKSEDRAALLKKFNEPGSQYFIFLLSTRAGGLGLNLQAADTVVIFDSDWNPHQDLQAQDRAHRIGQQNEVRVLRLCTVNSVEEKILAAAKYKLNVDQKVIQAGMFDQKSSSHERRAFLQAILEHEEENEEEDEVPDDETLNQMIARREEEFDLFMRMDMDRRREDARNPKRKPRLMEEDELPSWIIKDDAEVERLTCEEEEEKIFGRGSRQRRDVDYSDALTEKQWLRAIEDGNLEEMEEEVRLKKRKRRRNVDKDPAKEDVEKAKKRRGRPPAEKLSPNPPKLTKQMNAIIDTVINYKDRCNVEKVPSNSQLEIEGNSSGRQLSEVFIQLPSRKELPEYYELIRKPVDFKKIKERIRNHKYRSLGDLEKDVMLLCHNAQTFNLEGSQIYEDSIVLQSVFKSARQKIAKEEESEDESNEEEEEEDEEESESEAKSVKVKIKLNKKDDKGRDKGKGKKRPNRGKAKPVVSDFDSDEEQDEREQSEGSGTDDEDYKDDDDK

Row | IC50 (FL-SMARCA4; [4]) [µM] | IC50 [1, 5] [µM] | SMILES | further results
1 |  |  | NCCCn1cc(NC(=O)c2cc(F)c(Cl)s2)cc(F)c1=O [Compound 28c] | IC50 (FL-SMARCA4; [2]): > 50 µM; IC50 [1, 3]: > 50 µM
2 | > 50 | > 50 | CCn1cc(NC(=O)c2cc(Cl)c(Cl)s2)cc(OCCN2CCN(C)CC2)c1=O [Compound 119] | 
3 |  |  | CCn1cc(NC(=O)[C@H]2CC[C@@H](Cl)C2)ccc1=O [Compound 16b] | IC50 (FL-SMARCA4; [6]): > 50 µM; IC50 [1, 7]: > 50 µM
4 |  |  | Cn1ccnc1-c1cc(NC(=O)c2sc(C(F)(F)F)cc2Cl)cn(CC(F)F)c1=O [Compound 51c] | IC50 (FL-SMARCA4; [2]): > 50 µM; IC50 [1, 3]: > 50 µM
5 | > 50 | > 50 | CCc1cc(NC(=O)c2cc(Cl)c(Cl)s2)cn(CC)c1=O [Compound 117] | 
6 |  |  | Cn1cnc(-c2cc(NC(=O)c3cc(Cl)c(C(F)(F)F)s3)cn(CC(F)F)c2=O)c1 [Compound 91c] | IC50 (FL-SMARCA4; [2]): > 50 µM; IC50 [1, 3]: > 50 µM
7 |  |  | COc1ncc(F)cc1C(=O)Nc1cc(F)c(=O)n(CC(F)F)c1 [Compound 41d] | IC50 (FL-SMARCA4; FL-SMARCA4 IC50): > 50 µM; IC50 [1, 8]: > 50 µM
8 | 13.7 | 1.85 | CCn1cc(NC(=O)c2cc(Cl)c(Cl)[nH]2)cc(Cl)c1=O [Compound 158] | 
9 | 34.7 | 16.7 | CCn1cc(NC(=O)c2cc(Cl)c(Cl)n2CCF)ccc1=O [Compound 60] | 
10 |  |  | CCc1c(NC(=O)c2cc(Cl)c(Cl)s2)ccc(=O)n1CC [Compound 30d] | IC50 (FL-SMARCA4; FL-SMARCA4 IC50): > 50 µM; IC50 [1, 8]: > 50 µM
11 | > 50 | > 50 | CCn1cc(NC(=O)c2cn(C(F)(F)F)c(Cl)n2)ccc1=O [Compound 124] | 
12 | 0.337 | 0.182 | CCn1cc(NC(=O)c2cc(C#Cc3ccncc3)c(Cl)s2)ccc1=O [Compound 334] | 
13 |  |  | CCn1cc(NC(=O)c2cc(Cl)c(Cl)s2)c(Cl)cc1=O [Compound 24d] | IC50 (FL-SMARCA4; FL-SMARCA4 IC50): > 50 µM; IC50 [1, 8]: 18.4 µM
14 | > 50 | > 50 | CN(C)C(=O)c1cc(C(=O)Nc2cc(F)c(=O)n(CCF)c2)sc1Cl [Compound 299] | 
15 |  |  | CCn1cc(NC(=O)c2c[nH]c3ccccc23)ccc1=O [Compound 22a] | IC50 (FL-SMARCA4; [9]): > 50 µM; IC50 [1, 10]: > 50 µM
16 |  |  | O=C(Nc1cc(F)c(=O)n(CC(F)F)c1)c1cnc(C#Cc2ccncc2)s1 [Compound 33c] | IC50 (FL-SMARCA4; [2]): 8.15 µM; IC50 [1, 3]: 8.9 µM
17 |  |  | Cc1cc(=O)n(C)cc1NC(=O)[C@@H]1CNC[C@H]1C(F)(F)F [Compound 8d] | IC50 (FL-SMARCA4; FL-SMARCA4 IC50): > 50 µM; IC50 [1, 8]: > 50 µM

Row | IC50 (FL-SMARCA4; [4]) [µM] | IC50 [1, 5] [µM] | SMILES | further results
18 |  |  | O=C(Nc1cc(F)c(=O)n(CC(F)F)c1)c1cc(Cl)c(C#CCO)s1 [Compound 52d] | IC50 (FL-SMARCA4; FL-SMARCA4 IC50): > 50 µM; IC50 [1, 8]: 34 µM
19 | 0.924 | 0.172 | CC(F)Cn1cc(NC(=O)c2cc(Cl)c(C(F)(F)F)s2)cc(F)c1=O (centres unmarked) [Compound 331] | 
20 | > 50 | > 50 | CCn1cc(NC(=O)c2cn(C)c(Cl)n2)ccc1=O [Compound 108] | 
21 | > 50 | > 50 | Cn1nc(C(=O)Nc2cc(F)c(=O)n(CCF)c2)cc1C#N [Compound 244] | 
22 | > 50 | > 50 | CCn1cc(NC(=O)c2csc(NC(C)C)n2)ccc1=O [Compound 218] | 
23 | > 50 | > 50 | CCn1cc(NC(=O)c2cc(-c3cn(C)cn3)c(Cl)s2)ccc1=O [Compound 280] | 
24 | 21.9 | 3.12 | Cn1c(C(=O)Nc2cc(Cl)c(=O)n(CCF)c2)cnc1Cl [Compound 194] | 
25 |  |  | CCn1cc(NC(=O)C2CCCCC2)ccc1=O [Compound 12b] | IC50 (FL-SMARCA4; [6]): > 50 µM; IC50 [1, 7]: > 50 µM
26 | > 50 | > 50 | CNCCn1cc(NC(=O)c2cc(Cl)c(Cl)n2C)ccc1=O [Compound 71] | 
27 | > 50 | > 50 | CCn1cc(NC(=O)c2csc(NC3CCCC3)n2)ccc1=O [Compound 202] | 
28 |  |  | O=C(Nc1cc(F)c(=O)n(CC(F)F)c1)c1nsc(Cl)n1 [Compound 76c] | IC50 (FL-SMARCA4; [2]): > 50 µM; IC50 [1, 3]: 24.1 µM
29 | > 50 | > 50 | N#Cc1ncc(C(=O)Nc2cc(F)c(=O)n(CCF)c2)o1 [Compound 266] | 
30 |  |  | CCN(CC)c1nc2sc(C(=O)Nc3cc(F)c(=O)n(CCF)c3)cc2s1 [Compound 61a] | IC50 (FL-SMARCA4; [9]): > 50 µM; IC50 [1, 10]: > 50 µM
31 |  |  | CCc1cc(=O)n(CC)cc1NC(=O)c1cc(Cl)c(Cl)s1 [Compound 28d] | IC50 (FL-SMARCA4; FL-SMARCA4 IC50): > 50 µM; IC50 [1, 8]: > 50 µM
32 |  |  | O=C(Nc1cc(F)c(=O)n(CC(F)F)c1)c1cc(C#CC2CN(CC(F)(F)F)C2)c(Cl)s1 [Compound 69c] | IC50 (FL-SMARCA4; [2]): 3.77 µM; IC50 [1, 3]: 1 µM
33 |  |  | C[S+]([O-])c1cc(C(=O)Nc2cc(F)c(=O)n(CC(F)F)c2)sc1Cl (centres unmarked) [Compound 2c] | IC50 (FL-SMARCA4; [2]): > 50 µM; IC50 [1, 3]: 24.6 µM
34 | > 50 | > 50 | NC(=O)c1ncc(C(=O)Nc2cc(F)c(=O)n(CCF)c2)s1 [Compound 226] | 
